Test results taken from US4386093A (The United States of America as represented by the …, priority 1981, dated 1983).
Where two headings read alike, the source gives them in different places.

What was measured:
[1] = tested on: HL-23 C type virus; experiment: HL-23 virus production in NRKB/HL23 cells; type: cell-based; details: HL2/3, 72 h
Procedure: on day 3; virus production by HL23 was measured with NRKB/HL23 cells on
day 3; oncogenic transformation by HL23 was assayed by infecting normal

[2] = tested on: HL-23 C type virus; experiment: HL-23 foci formation (oncogenic transformation) in normal rat kidney cells; type: cell-based; details: NRK 153 Cl 7 cells, day 5
[3] = Cell number in HL-23 foci formation assay; type: cell-based; details: rat, nrk 153 cl 7 cells, read-out: % Control Cell Number
[4] = tested on: calf intestinal deaminase; experiment: Deamination by calf intestinal deaminase; type: biochemical
[5] = tested on: herpes simplex type I; experiment: Herpes I plaque formation in mouse L cells; type: cell-based; details: 72 h, day 3
[6] = 1 μM; vaccinia assay
[7] = Cell number in herpes I plaque assay; type: cell-based; details: mouse L cells
[8] = tested on: adenosine kinase; experiment: Phosphorylation by adenosine kinase; type: biochemical
[9] = in vitro; details: vaccinia assay host cells
[10] = tested on: neutrophilis or macrophage cell lines
[11] = Cell number in HL-23 virus production assay; type: cell-based; details: rat, nrkb/hl23 cells, read-out: % Control Cell Number
[12] = tested on: vaccinia virus; experiment: microbe, parasite or virus in culture; type: cell-based
[13] = tested on: poliovirus; type: cell-based
[14] = tested on: S-adenosylhomocysteine hydrolase
[15] = listed as (±)3-Deazaaristeromycin
[16] = read-out: Ki, S-adenosylhomocysteine hydrolase

Nc1nccc2c1ncn2[C@@H]1C[C@H](CO)[C@@H](O)[C@H]1O (relative stereo) [(±)3-deazaaristeromycin, (±)-4-amino-1-[(1α, 2β, 3β, 4α)-2,3-dihydroxy-4-(hydroxymethyl)-cyclopentyl]imidazo[4,5-c]pyridine]
inhibition at 0.25 µM ([1]; 0.25 uM, day 3): 68% | inhibition at 1 µM ([1]; 1.00 uM, day 3): 86% | inhibition at 0.5 µM ([1]; read-out: % Inhibition, HL-23 virus production, 0.50 uM, day 3): > 85% | % Inhibition, HL-23 foci formation ([2]; 2.00 uM, 2 µM): 92% | inhibition at 0.25 µM ([2]; HL2/3, 120 h, 0.25 uM): 44% | inhibition at 0.5 µM ([2]; HL2/3, 120 h, 0.50 uM): 44% | inhibition at 1 µM ([2]; HL2/3, 120 h, 1.00 uM): 76% | inhibition at 2 µM ([2]; HL2/3, 120 h, 2.00 uM): ~96% | inhibition at 4 µM ([2]; HL2/3, 120 h, 4.00 uM): 99% | activity at 120 h, 0.25 µM ([3]; 0.25 uM): 100% | activity at 120 h, 0.5 µM ([3]; 0.50 uM): 96% | activity at 120 h, 1 µM ([3]; 1.00 uM): 81% | activity at 120 h, 2 µM ([3]; 2.00 uM): 71% | activity at 120 h, 4 µM ([3]; 4.00 uM): 53% | Deamination ([4]; listed as 3-Deaza-Ari): not deaminated | Deamination [4, 15]: not subject to deamination or phosphorylation | inhibition at 10 µM ([5]; 10 uM): 60% | inhibition at 20 µM ([5]; 20 uM): 97% | inhibition at 30 µM ([5]; 30 uM): > 99% | inhibition at 40 µM ([5]; 40 uM): 99.3% | inhibition at 50 µM ([5]; 50 uM): 99.3% | inhibition at 60 µM ([5]; 60 uM): 100% | inhibition at 70 µM ([5]; 70 uM): 100% | cytotoxicity [6]: without any cytotoxicity | activity at 72 h, 10 µM ([7]; 10 uM, read-out: % Control Cell Number): 100% | activity at 72 h, 20 µM ([7]; 20 uM, read-out: % Control Cell Number): 95% | activity at 72 h, 30 µM ([7]; 30 uM, read-out: % Control Cell Number): 95% | activity at 72 h, 40 µM ([7]; 40 uM, read-out: % Control Cell Number): 91% | activity at 72 h, 50 µM ([7]; 50 uM, read-out: % Control Cell Number): 95% | activity at 72 h, 60 µM ([7]; 60 uM, read-out: % Control Cell Number): 91% | activity at 72 h, 70 µM ([7]; 70 uM, read-out: % Control Cell Number): 82% | cytotoxicity ([7]; 20-30 μM, read-out: Reduction in the cell number (cytotoxicity)): ≤ 5% | Phosphorylation ([8]; listed as 3-Deaza-Ari): not phosphorylated | Phosphorylation [8, 15]: not subject to deamination or phosphorylation | activity at 0.5 µM [9]: 120% | activity at 1 µM [9]: 144% | activity at 2 µM [9]: 111% | activity at 4 µM [9]: 111% | Inhibition of chemotaxis [10]: does not inhibit | activity at 72 h, 0.25 µM ([11]; 0.25 uM): 100% | activity at 72 h, 0.5 µM ([11]; 0.50 uM): 88% | activity at 72 h, 1 µM ([11]; 1.00 uM): 75% | % Inhibition, Vaccinia plaque formation ([12]; 1.0 uM): 99.2% | inhibition at 0.5 µM ([12]; Orthopoxvirus vaccinia, read-out: % Inhibition, Vaccinia plaque formation, 0.5 uM): 84% | inhibition at 1 µM ([12]; Orthopoxvirus vaccinia, read-out: % Inhibition, Vaccinia plaque formation, 1.0 uM): > 99% | inhibition at 2 µM ([12]; Orthopoxvirus vaccinia, read-out: % Inhibition, Vaccinia plaque formation, 2.0 uM): 99.6% | inhibition at 4 µM ([12]; Orthopoxvirus vaccinia, read-out: % Inhibition, Vaccinia plaque formation, 4.0 uM): 99.8% | Inhibition of replication of poliovirus [13]: fail to inhibit | Irreversible inhibition of the enzyme [14]: negligible or very little irreversible inhibition | Ki ([14]; read-out: Ki, AdoHcy hydrolase): 3 µM | Ki [14, 16]: 3 µM

Nc1nccc2c1ncn2[C@@H]1O[C@H](CO)[C@@H](O)[C@H]1O [3-deazaadenosine, reference compound]
Inhibition of replication of poliovirus [13]: fail to inhibit

Nc1ncnc2c1ncn2[C@@H]1C[C@H](CO)[C@@H](O)[C@H]1O (relative stereo) [(±)aristeromycin, reference compound]
Ki [14, 16]: 0.001 µM
